In patent publication US7829548B2, “Compounds useful in the treatment of HIV” (Medivir AB, priority 2004, dated 2010):
Read-outs that look alike come from different tables or passages of the source.

Tests used:
[1] = tested on: HIV-1 isolates from patient plasma samples; assay type: cell-based; settings: for FC value: isolate 4 (K65R+M184V, R211S, K219E)
Procedure: The susceptibility of 2′,3′-dideoxy-3′-C-hydroxymethyl-cytosine on HIV-1 isolates from patient plasma samples that bear typical TAM primer rescue mutant resistant genotypes is determined by the commercially available PhenoSense HIV assay (described in Petropoulos, C J et al., (2000) Antimicrob. Agents Chemother. 44:920-928 and performed by ViroLogics, Inc). The assay is performed by amplifying the protease (PR)-RT segment of the HIV pol gene from patient plasma and inserting the amplification products into a modified HIV-1 vector derived from an NL4-3 molecular clone.
Viral stocks are prepared by co-transfecting 293 cell cultures with recombinant viral DNA vector and an expression vector that produces the amphotropic murine leukemia virus envelope proteins. Pseudotyped virus particles are harvested from the transfected cell cultures and are used to infect fresh 293 cell cultures. The recombinant viral DNA contains a luciferase gene cassette within the HIV env gene region and the production of luciferase in target cells is dependent on the completion of one round of virus replication. Drug susceptibility is measured by adding serial concentrations of the compound of the invention and the reference compounds to the cells. Drugs that inhibit virus replication reduce luciferase signal in a dose-dependent manner, providing a quantitative measure of drug susceptibility.

[2] = tested on: TAM primer rescue-related resistant HIV isolates; test: Drug susceptibility assay in PBMC culture (p24 antigen); assay type: cell-based, HIV-1
Procedure: The antiviral performance of the compound of the invention against additional TAM primer rescue-related resistant HIV isolates was assayed in a PBMC culture. Isolates of HIV-1 were generated and expanded to high titer by co-cultivation of infected patient PBMC with PHA-stimulated donor PBMC (Virology Manual for ACTG HIV Laboratories). The cell-free supernatants were harvested, sequenced, and stored in aliquots at −70° C. for drug susceptibility assays.
In vitro drug susceptibility assays were performed using a modified ACTG/DOD consensus method (Virology Manual for ACTG HIV laboratories). PBMCs were pre-infected with viral stocks for 4 hrs at […] in a humidified atmosphere of 5% CO2 following 4 hr incubation. Infected cells were washed twice in media and pipetted into a microtiter plate with eight serial drug dilutions. Each well contained 100,000 pre-infected PBMC and all drug dilutions were made with cell culture medium. The drug dilutions were chosen to span the 50% inhibitory concentration (IC50) for each single drug. Control wells containing cells and virus were co-incubated on each plate. After a 7-day incubation at […] in a […] atmosphere of 5% CO2, viral growth was determined using a p24 antigen assay on supernatants (Abbott Laboratories, Chicago, USA). The percent inhibition of viral growth compared to the control well, which contained no drug, was calculated and expressed as fold changes (reductions in compounds susceptibility) compared to the control well. The reference compound AZT was run in parallel with the compound of the invention.
A cluster of representative of primer rescue-related mutant virus was selected that harbors the essential feature of primer rescue-related TAM resistant RT mutations. Strains with mutations at position M41L, D67N, K70R, L210W, T215Y/F and K219Q/E in various combinations with or without discriminative mutant M184V were used as indicated in Table 4.

[3] = Release of parent compound from prodrugs in pooled human plasma; assay type: in vitro ADME; settings: 37C, spiked with 5 uM of the prodrug
Procedure: Confirmation that the prodrugs of the invention convert completely to active 2′3′-dideoxy-3′-C-hydromethylcytosine parent compound can be assessed by monitoring the appearance of the parent compound in pooled human plasma, 37C, spiked with 5 uM of the prodrug: […]

HIV = test: Antiretroviral ED50 in human H9 cells; assay type: cell-based; settings: Human immunodeficiency virus 1
HIV-1 RT [4] = target: T1, HIV-1 RT (Human immunodeficiency virus type 1 group M subtype B, UniProt P04585); test: Residual free 3′-OH primer terminus after pre-incubation, second round of RT-catalysed DNA polymerization; assay type: biochemical; settings: pre-incubation 10 and 30 minutes; ddCTP compared to the triphosphate of the compound of the invention
Procedure: The presence of a 3′-hydroxymethyl group in the compound of the invention should, in principle, support incorporation and elongation into the viral nucleic acid catalyzed by HIV-1 RT. A rate-limiting amount of primer-template (16S and 23S ribosomal RNA annealed with an oligo-DNA primer with the sequence of 5′-[…]-3′ (SEQ ID NO:1), custom synthesized by INNOVAGEN) was used. This was pre-incubated with 100 μM (55 times the IC50) 2′-3′-dideoxy-3′-C-hydroxymethylcytidine-triphosphate, 6.0 μM ddC-triphosphate (54 times the IC50 ddCTP), 20 μM deoxycytosine-triphosphate (20 times the Km dCTP) or the control (H2O). At the time points indicated (0, 10, 30, 60, and 120 min), the DNA polymerization process was stopped by inactivation of the RT at 70° C. for 2 min during the first round of DNA polymerization (FIG. 9).
The residual amount of primer-template directly reflects the availability of free 3′-OH primer terminus present after the first round of reaction. […] The availability of free 3′-OH at the primer terminus in the residual amount of primer-template that supported further DNA polymerization was measured and expressed as a function of pre-incubation time (FIG. 10).

HIV-1 RT [5] = target: T1, HIV-1 RT; test: DNA chain termination assay (M13mp18 template, gel autoradiography); assay type: biochemical
Procedure: Two deoxycytosine analogues, the conventional NRTI ddC lacking a 3′-hydroxyl group function and the compound of the invention, were subjected to a DNA chain termination assay in which DNA prolongation was conducted with M13mp18 single strand DNA template pre-annealed to an oligo-DNA primer (the forward primer sequence of 5′-[…]-3′ (SEQ ID NO:2) was purchased from Amersham UK. M13mp18 single strand […] was annealed to this oligo-DNA primer giving a final concentration of 1 mg/ml in a buffer containing 10 mM Tris-HCl, pH 7.9 and 100 mM NaCl, and was stored in aliquots at −20° C. DNA polymerization was conducted using this annealed template/primer, HIV-1 RT and natural dNTPs in a reaction incubated at 37° C. for 25 min. The reaction was stopped by the addition of Stop solution containing 95% Formamide, 20 mM EDTA, 0.05% Bromophenol Blue and 0.05% Xylene Cyanol FF (purchased from USB, United States Biochemical via Amersham UK). After denaturing the DNA products, the elongated DNA fragment was electrophoresed on an 8.0% polyacrylamide gel and visualized using autoradiography.
The assay included a negative control (the native dNTP), dual positive ddCTP controls (ddCTP, 8 uM from Sigma Chemical, St. Louis, Miss., USA and ddCTP obtained from a USB sequence kit United States Biochemical via Amersham UK). Various molecule ratios of the triphosphate of the compound of the invention and the natural dNTP were used. After the reaction was conducted as described above, the denatured DNA fragments from each individual reaction was loaded onto an 8.0% polyacrylamide gel in the following order: • 1—Negative control • 2—1st Positive control 8 μM ddCTP (purchased from Sigma) • 3—20 μM inventionTP in 200 μM dNTP • 4—30 μM inventionTP in 300 μM dNTP • 5—40 μM invention TP in 400 μM dNTP • 6—50 μM invention TP in 500 μM dNTP • 7—20 μM invention TP in 80 μM dNTP • 8—40 μM invention TP in 80 μM dNTP • 9—Empty space (no loading) • 10—2nd positive control ddCTP (from USB sequence kit)

[6] = patient isolates 20 and 21, isolate not specified, compared to wildtype
[7] = primer rescue mutant isolates of Table 4

Nc1nc(NC2CC2)c2ncn([C@H]3C=C[C@@H](CO)C3)c2n1 [ABC, abacavir]
FC value [1]: > 9.0
fold reduction in susceptibility [1, 6]: lost potency

Cc1cn([C@H]2C[C@H](N=[N+]=[N-])[C@@H](CO)O2)c(=O)[nH]c1=O [AZT, zidovudine]
FC value ([2]; isolate 7086 (T215V)): 3.0
FC value [2, 7]: a couple of hundred folds
FC value [1]: 1.11

Nc1ccn([C@@H]2CS[C@H](CO)O2)c(=O)n1 [Compound 3TC, lamivudine]
FC value [1]: > 200

CC(C)[C@H](N)C(=O)OCC1CC(n2ccc(N)nc2=O)OC1CO (stereo partly drawn) [Compound 5, 2′-3′-dideoxy-3-C-(L-valyl-oxymethyl)cytosine]
Concentration of parent uM 5 min [3]: 0.4 µM
Concentration of parent uM 20 min [3]: 1.0 µM
Concentration of parent uM O min [3]: 0 µM

CC(C)[C@H](N)C(=O)OCC1CC(n2ccc(N)nc2=O)OC1COC(=O)[C@@H](N)C(C)C (stereo partly drawn) [Compound 8, 5′-O-L-valyl-2′,3′-dideoxy-3′-C-L-valyloxymethylcytosine]
Concentration of parent uM 5 min [3]: 0.2 µM
Concentration of parent uM 20 min [3]: 0.3 µM
Concentration of parent uM O min [3]: 0.1 µM

CC(C)[C@H](N)C(=O)O[C@@H](C)C(=O)OCC1CC(n2ccc(N)nc2=O)OC1CO (stereo partly drawn) [Compound 14, 2′,3′-dideoxy-3′-C-[2-S-(L-valyloxy)-propionyl]-oxymethylcytosine]
Concentration of parent uM 5 min [3]: 4.5 µM
Concentration of parent uM 20 min [3]: 4.6 µM
Concentration of parent uM O min [3]: 4.6 µM

CCCCC(=O)OCC1CC(n2ccc(N)nc2=O)OC1COC(=O)CCCC (centres unmarked) [Compound 22, 5′-O-pentanoyl-2′-3′-dideoxy-3-C-pentanoyl-oxymethylcytosine]
Concentration of parent uM 5 min [3]: 4.0 µM
Concentration of parent uM 20 min [3]: 4.5 µM
Concentration of parent uM O min [3]: 4.2 µM

CCCCC(=O)OC[C@H]1C[C@H](n2ccc(N)nc2=O)O[C@@H]1CO [Compound 24, 2′,3′-dideoxy-3′-C-pentanoyl-oxymethylcytosine]
Concentration of parent uM 5 min [3]: 4.2 µM
Concentration of parent uM 20 min [3]: 4.4 µM
Concentration of parent uM O min [3]: 3.9 µM

Nc1nc(=O)n([C@@H]2CS[C@H](CO)O2)cc1F [FTC, emtricitabine]
FC value [1]: > 40
fold reduction in susceptibility [1, 6]: lost potency

C[C@H](Cn1cnc2c(N)ncnc21)OCP(=O)(O)O [TNF, tenofovir]
fold reduction in susceptibility [1, 6]: lost potency

Nc1ccn([C@H]2C[C@H](CO)[C@@H](CO)O2)c(=O)n1 [compound of the invention, 2′,3′-dideoxy-3′-C-hydroxymethylcytidine]
EC50 (HIV): ~10 nM
FC value [2, 7]: ≤ 2.7
FC value [1]: 3.88
fold difference in susceptibility ([1]; patient isolate 19 (M184V + TAMs), compared to wild type HIV): 1.78 fold
fold reduction in susceptibility ([1]; patient isolate 20 (TAM), compared to wild-type HIV): 1.0 fold
fold reduction in susceptibility ([1]; patient isolate 21 (TAM), compared to wild-type HIV): < 1.0 fold
fold reduction in susceptibility ([1]; patient isolate 32 (T69S + VG insertion)): 2.79 fold
fold reduction in susceptibility ([1]; patient isolate 35 (T69S + VA insertion)): 4.29 fold
change in drug susceptibility ([1]; patient isolates 31, 32 and 35 (T69S + XX + TAMs), compared with six reference antivirals): smallest change in drug susceptibility

Cc1cn([C@H]2C=C[C@@H](CO)O2)c(=O)[nH]c1=O [d4T, stavudine]
FC value [1]: 0.71
fold reduction in susceptibility [1, 6]: lost potency

Nc1ccn([C@H]2CC[C@@H](COP(=O)(O)OP(=O)(O)OP(=O)(O)O)O2)c(=O)n1 [ddCTP, ddC-triphosphate, reference compound]
residual 3-OH primer terminus left to support further DNA prolongation (HIV-1 RT [4]): less than half
chain termination pattern (HIV-1 RT [5]; lane 2, 1st positive control, 8 μM): led to chain termination at the anticipated 2′3′-deoxydeoxycytosine sites
chain termination pattern (HIV-1 RT [5]; lane 10, 2nd positive control (USB sequence kit)): led to chain termination at anticipated 2′3′-deoxydeoxycytosine sites

Nc1ccn([C@H]2C[C@H](CO)[C@@H](COP(=O)(O)OP(=O)(O)OP(=O)(O)O)O2)c(=O)n1 [inventionTP, 2′-3′-dideoxy-3′-C-hydroxymethylcytidine-triphosphate]
chain termination pattern (HIV-1 RT [5]; lane 3, 20 μM TP / 200 μM dNTP): led to chain termination at the site after/behind 2′3′-deoxydeoxycytosine site
chain termination pattern (HIV-1 RT [5]; lane 4, 30 μM TP / 300 μM dNTP): led to chain termination at the site after 2′3′-deoxydeoxycytosine site
chain termination pattern (HIV-1 RT [5]; lane 5, 40 μM TP / 400 μM dNTP): lead to chain termination at the site after 2′3′-deoxydeoxycytosine site
chain termination pattern (HIV-1 RT [5]; lane 6, 50 μM TP / 500 μM dNTP): No specific pause (chain termination pattern) was found
chain termination pattern (HIV-1 RT [5]; lane 7, 20 μM TP / 80 μM dNTP): led to a more pronounced chain termination effect at the site after the 2′3′-deoxydeoxycytosine site
chain termination pattern (HIV-1 RT [5]; lane 8, 40 μM TP / 80 μM dNTP): led to a more pronounced chain termination effect at the site after the 2′3′-deoxydeoxycytosine site
